Test [1] has as its target Tyrosine-protein kinase Lyn (Homo sapiens, UniProt P07948). The settings on record: at 10 µM.
Test [2] addresses T1, Myosin-IIIb (Homo sapiens) (UniProt Q8WXR4).
T1 sequence (whole entry): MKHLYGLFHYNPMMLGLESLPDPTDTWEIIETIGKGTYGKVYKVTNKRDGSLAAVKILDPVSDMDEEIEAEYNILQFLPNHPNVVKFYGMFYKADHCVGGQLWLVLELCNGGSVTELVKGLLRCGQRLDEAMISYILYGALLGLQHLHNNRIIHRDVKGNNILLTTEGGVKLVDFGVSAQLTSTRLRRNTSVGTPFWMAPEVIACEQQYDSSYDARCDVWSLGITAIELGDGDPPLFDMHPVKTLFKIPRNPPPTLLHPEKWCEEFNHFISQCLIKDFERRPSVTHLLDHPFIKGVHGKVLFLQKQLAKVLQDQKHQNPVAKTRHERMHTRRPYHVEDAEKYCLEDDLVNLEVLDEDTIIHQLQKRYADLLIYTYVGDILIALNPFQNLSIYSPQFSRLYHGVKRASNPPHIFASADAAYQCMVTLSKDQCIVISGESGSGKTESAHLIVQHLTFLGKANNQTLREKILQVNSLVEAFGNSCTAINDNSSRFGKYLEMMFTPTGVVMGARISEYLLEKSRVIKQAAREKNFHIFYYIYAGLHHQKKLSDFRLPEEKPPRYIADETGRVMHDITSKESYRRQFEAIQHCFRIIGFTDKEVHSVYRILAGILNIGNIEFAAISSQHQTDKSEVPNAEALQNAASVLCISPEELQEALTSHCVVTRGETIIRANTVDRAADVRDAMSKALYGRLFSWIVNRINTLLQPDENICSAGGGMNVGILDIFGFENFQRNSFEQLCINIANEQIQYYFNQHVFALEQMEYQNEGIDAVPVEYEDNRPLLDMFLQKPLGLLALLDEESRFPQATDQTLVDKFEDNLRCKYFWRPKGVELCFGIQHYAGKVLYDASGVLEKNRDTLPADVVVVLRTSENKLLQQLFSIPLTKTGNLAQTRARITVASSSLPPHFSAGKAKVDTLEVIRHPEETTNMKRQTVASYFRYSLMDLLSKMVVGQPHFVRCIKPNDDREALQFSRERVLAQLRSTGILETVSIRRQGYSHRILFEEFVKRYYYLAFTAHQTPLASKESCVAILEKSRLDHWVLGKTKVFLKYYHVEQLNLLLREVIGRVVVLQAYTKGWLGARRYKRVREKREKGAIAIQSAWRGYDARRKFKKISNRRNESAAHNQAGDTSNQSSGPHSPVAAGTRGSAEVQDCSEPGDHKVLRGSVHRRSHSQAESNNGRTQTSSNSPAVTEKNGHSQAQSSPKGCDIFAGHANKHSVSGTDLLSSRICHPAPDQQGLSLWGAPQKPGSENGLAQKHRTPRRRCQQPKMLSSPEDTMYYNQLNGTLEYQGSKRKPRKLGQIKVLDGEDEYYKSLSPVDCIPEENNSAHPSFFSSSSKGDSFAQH
Kind of test: Selectivity interaction (KinomeScan (DiscoverX)) EUB0000607a MYO3B. The settings on record: at 10 µM.

Test [3] has as its target Receptor-type tyrosine-protein kinase FLT3 (Homo sapiens) (UniProt P36888). Kind of test: Selectivity interaction (KinomeScan (DiscoverX)) EUB0000607a FLT3. The settings on record: at 10 µM.
In test [4] the target is Activated CDC42 kinase 1 (Homo sapiens, UniProt Q07912). Kind of test: Selectivity interaction (ActivX KiNativ screen (kinase selectivity in THP-1 cell lysates)) EUB0000639a TNK2. The settings on record: lysate. Type of test: subcellular.
Sequence of Activated CDC42 kinase 1 (Q07912 whole entry, looked up): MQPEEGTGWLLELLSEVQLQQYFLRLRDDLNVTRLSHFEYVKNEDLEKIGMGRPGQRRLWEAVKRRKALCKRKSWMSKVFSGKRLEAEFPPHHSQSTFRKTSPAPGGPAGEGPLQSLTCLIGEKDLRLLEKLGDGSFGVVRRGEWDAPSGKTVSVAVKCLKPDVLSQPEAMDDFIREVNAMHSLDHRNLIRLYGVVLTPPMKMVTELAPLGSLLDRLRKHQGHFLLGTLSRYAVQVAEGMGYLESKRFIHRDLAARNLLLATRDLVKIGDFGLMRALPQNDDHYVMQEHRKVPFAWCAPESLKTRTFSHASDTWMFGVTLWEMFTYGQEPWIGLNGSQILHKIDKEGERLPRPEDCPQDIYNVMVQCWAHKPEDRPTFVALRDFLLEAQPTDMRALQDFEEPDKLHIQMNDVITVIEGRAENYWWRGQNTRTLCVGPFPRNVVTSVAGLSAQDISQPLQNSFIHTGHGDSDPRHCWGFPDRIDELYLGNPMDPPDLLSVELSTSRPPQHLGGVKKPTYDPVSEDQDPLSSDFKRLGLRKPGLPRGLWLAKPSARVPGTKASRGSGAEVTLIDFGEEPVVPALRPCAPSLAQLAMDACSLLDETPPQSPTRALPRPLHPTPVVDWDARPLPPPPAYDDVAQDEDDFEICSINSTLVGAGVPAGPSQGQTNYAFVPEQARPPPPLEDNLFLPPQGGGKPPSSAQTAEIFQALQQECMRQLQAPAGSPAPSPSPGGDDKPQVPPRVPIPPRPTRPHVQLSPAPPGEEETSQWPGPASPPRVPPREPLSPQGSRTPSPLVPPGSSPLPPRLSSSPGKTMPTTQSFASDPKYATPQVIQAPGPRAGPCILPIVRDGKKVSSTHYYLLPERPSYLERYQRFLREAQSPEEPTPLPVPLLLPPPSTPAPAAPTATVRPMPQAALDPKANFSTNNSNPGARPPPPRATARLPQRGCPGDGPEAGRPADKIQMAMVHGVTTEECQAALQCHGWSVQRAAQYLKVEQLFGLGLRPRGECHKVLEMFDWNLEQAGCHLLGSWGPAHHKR
The target in test [5] is T2, Histone-arginine methyltransferase CARM1 (Homo sapiens) (UniProt Q86X55).
T2 sequence (whole entry): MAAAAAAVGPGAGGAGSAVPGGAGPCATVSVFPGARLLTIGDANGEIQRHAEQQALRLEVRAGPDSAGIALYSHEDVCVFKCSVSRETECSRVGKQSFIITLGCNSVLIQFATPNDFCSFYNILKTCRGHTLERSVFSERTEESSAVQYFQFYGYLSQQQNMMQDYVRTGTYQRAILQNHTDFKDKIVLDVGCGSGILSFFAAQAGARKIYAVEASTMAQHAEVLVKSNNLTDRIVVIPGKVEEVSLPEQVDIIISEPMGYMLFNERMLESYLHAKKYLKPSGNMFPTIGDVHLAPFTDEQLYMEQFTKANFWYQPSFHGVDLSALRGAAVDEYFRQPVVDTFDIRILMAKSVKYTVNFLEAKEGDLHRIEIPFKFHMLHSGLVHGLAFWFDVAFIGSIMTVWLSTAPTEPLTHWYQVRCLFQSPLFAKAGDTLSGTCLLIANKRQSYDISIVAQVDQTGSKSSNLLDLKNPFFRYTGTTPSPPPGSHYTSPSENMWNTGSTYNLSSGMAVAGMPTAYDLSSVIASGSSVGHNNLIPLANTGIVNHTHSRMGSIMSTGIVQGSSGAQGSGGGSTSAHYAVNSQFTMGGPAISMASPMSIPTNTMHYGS
The settings on record: U-266, at 3 µM.

Test [6] addresses Serine/threonine-protein kinase pim-1 (Homo sapiens, UniProt P11309). Kind of test: Selectivity interaction (ProQinase) EUB0000171b PIM1.
Test [7] concerns the target Mitogen-activated protein kinase 7 (Homo sapiens) (UniProt Q13164). The experiment in a line: Selectivity interaction (Ambit KINOMEscan and KiNATiv profiling in Jurkat cells) EUB0000090b MAPK7. Type of test: cell-based. The settings on record: at 1 µM.

Sequence of Serine/threonine-protein kinase pim-1 (P11309 whole entry, looked up): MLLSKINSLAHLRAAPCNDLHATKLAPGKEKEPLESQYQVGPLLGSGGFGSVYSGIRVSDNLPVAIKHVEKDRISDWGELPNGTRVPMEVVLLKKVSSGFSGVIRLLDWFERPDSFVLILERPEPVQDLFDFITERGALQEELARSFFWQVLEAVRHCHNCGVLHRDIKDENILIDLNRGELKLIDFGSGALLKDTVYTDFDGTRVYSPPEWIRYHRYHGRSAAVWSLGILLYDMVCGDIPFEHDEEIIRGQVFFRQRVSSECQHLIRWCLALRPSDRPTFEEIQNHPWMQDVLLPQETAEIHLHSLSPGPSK
Sequence of Mitogen-activated protein kinase 7 (Homo sapiens) (Q13164 2-816 limits assumed): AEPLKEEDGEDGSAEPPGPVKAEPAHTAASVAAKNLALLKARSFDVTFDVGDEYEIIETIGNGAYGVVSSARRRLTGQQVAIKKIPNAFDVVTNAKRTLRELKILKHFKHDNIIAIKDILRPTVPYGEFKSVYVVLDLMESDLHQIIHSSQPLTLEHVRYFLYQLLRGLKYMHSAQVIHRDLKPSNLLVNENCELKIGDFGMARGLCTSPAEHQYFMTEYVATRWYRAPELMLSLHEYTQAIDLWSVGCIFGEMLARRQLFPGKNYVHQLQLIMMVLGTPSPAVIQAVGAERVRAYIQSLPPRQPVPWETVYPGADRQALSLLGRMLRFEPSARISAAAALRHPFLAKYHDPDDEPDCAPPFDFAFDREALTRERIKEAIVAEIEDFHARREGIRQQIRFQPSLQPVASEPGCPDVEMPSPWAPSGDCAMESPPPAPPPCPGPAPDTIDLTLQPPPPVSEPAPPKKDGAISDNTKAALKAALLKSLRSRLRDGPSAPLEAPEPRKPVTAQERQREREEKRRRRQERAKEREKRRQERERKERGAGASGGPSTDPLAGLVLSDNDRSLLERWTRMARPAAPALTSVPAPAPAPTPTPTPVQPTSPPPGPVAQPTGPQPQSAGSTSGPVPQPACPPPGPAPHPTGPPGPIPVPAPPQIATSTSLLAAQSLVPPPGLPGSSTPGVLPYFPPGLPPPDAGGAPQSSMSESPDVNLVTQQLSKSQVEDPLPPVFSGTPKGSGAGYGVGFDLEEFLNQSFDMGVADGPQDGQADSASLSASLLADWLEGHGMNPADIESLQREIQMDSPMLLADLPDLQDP
Sequence of Tyrosine-protein kinase Lyn (P07948 2-512 limits assumed): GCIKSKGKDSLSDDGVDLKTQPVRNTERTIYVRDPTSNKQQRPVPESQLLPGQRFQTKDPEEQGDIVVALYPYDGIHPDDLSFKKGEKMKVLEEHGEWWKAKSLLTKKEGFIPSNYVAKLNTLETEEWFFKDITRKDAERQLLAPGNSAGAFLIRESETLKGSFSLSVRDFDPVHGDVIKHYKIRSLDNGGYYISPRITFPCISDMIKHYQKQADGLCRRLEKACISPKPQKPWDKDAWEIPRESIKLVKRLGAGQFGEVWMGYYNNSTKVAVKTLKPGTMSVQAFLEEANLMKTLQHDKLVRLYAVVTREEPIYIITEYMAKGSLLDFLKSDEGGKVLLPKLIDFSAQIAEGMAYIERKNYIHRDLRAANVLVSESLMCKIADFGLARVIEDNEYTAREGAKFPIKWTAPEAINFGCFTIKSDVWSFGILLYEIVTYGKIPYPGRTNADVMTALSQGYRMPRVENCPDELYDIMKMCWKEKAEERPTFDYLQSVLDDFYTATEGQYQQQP
Sequence of Receptor-type tyrosine-protein kinase FLT3 (Homo sapiens) (P36888 whole entry): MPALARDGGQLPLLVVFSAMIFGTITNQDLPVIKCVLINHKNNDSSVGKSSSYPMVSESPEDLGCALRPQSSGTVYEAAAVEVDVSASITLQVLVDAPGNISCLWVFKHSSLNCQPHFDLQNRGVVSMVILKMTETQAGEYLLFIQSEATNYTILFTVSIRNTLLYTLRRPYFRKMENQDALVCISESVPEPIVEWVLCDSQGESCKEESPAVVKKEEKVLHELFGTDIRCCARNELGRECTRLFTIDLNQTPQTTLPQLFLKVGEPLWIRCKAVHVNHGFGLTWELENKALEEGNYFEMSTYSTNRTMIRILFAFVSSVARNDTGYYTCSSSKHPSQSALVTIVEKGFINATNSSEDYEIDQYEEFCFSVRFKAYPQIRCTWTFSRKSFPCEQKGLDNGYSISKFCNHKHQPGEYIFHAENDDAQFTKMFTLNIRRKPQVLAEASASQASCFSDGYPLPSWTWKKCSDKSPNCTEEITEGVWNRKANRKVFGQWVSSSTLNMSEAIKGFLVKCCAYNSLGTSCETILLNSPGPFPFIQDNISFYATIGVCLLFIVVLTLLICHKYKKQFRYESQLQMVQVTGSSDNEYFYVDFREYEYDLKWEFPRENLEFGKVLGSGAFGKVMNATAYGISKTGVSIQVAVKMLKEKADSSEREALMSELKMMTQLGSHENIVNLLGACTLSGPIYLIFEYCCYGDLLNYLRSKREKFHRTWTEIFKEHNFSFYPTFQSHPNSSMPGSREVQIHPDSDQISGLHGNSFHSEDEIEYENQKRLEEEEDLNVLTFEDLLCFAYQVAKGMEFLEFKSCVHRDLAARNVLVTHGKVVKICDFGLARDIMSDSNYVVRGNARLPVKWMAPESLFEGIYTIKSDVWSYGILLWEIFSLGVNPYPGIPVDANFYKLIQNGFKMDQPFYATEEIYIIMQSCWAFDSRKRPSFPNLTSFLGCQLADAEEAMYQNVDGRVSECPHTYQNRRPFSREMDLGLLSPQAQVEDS

On to `CCN(CC)CCCCNc1ncc2cc(-c3cc(OC)cc(OC)c3)c(NC(=O)NC(C)(C)C)nc2n1`, for which, in test [1], the % of control came to 100%.

As to `CNC(=O)Nc1ccc(-c2nc(N3CC4CCC(C3)O4)c3cnn(C4CCC5(CC4)OCCO5)c3n2)cc1`, the % of control turned out to be 91% in test [2] and 77% in test [3].

As to `CC[C@@H]1[C@H](F)C(=O)N[C@@H]1COc1nccc2cc(C(N)=O)c(OC)cc12` [ZIMLOVISERTIB], the % of inhibition is 1.7% in test [4] (at 0.01 µM); -15.5% in test [4] (at 0.04 µM); -11.3% in test [4] (at 0.2 µM); -19.1% in test [4] (at 1 µM); -20.6% in test [4] (at 5 µM).

Turning to `CNCCN1CCC(c2cc(CN(C)C(=O)c3cccc(Oc4ccccc4)c3)ccn2)CC1`, the % of growth rate in test [5] was -24.4%.

For `C=CC(=O)Nc1cccc(C(=O)Nc2ccc(Nc3cc(-c4[nH]c(SC)nc4C)ccn3)cc2)c1`, the % of control in test [6] (at 1 µM) was 87%; in test [6] (at 5 µM), 67%.

Consider `CN(C)C/C=C/C(=O)Nc1ccc(C(=O)N2CCCC(Nc3ncc(Cl)c(-c4c[nH]c5ccccc45)n3)C2)cc1` (configuration not stated), for which the % of control in test [7] was 88%.
